US20180000952A1, “ENZYME AND RECEPTOR MODULATION” (GlaxoSmithKline Intellectual Property Development Limited, priority 2005, published 2018)
Like-named read-outs stand apart in the source and are kept apart here. One block for each molecule: values may come before it.

How the values were obtained:
recombinant human DHFR = target: T1, recombinant human DHFR (Homo sapiens, UniProt P00374); test: Dihydrofolate reductase (DHFR) inhibitory activity assay; type: biochemical
T1 construct: purchased Sigma CS0340
T1 sequence (P00374 1-187): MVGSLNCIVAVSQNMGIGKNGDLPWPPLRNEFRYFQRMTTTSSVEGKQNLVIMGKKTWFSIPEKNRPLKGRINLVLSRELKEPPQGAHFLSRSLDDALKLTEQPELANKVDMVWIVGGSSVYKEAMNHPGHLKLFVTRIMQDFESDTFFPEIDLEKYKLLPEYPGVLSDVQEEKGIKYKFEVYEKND
Description: The ability of compounds to inhibit DHFR activity was measured in an assay based on the ability of DHFR to catalyse the reversible NADPH-dependent reduction of dihydrofolic acid to tetrahydrofolic acid using a Sigma kit (Catalogue number CS0340). This uses proprietary assay buffer and recombinant human DHFR at 7.5×10^−4 Unit per reaction, NADPH at 60 μM and dihydrofolic acid at 50 μM. The reaction was followed by monitoring the decrease in absorbance at 340 nm, for a 2 minute period, at room temperature, and the enzyme activity was calculated as the rate of decrease in absorbance. Enzyme activity, in the presence of inhibitor, was expressed as a percentage of inhibitor-free activity and the inhibitor IC50 was determined from a sigmoidal dose response curve using XIfit software (% activity against log concentration of compound). Each sample was run in triplicate and each dose response curve was composed of 10 dilutions of the inhibitor.

HCT 116 cells = test: Cell proliferation inhibition assay (WST-1), HCT116; type: cell-based; details: for Ratio IC50 Cell/enzyme (HCT116), Table 2: HCT116 cell IC50 / DHFR enzyme IC50
Description: (§1) Following 24 h of growth cells were treated with compound. Plates were then re-incubated for a further 72-96 h before a WST-1 cell viability assay was conducted according to the suppliers (Roche Applied Science) instructions
(§2) Data were expressed as a percentage inhibition of the control, measured in the absence of inhibitor, as follows;—
(§3) where S^l is the signal in the presence of inhibitor and S^o is the signal in the presence of DMSO.
(§4) Dose response curves were generated from 8 concentrations (top final concentration 10 μM, with 3-fold dilutions), using 6 replicates.

U937 cells = test: Cell proliferation inhibition assay (WST-1), U937; type: cell-based; details: for selectivity between a monocytic and non-monocytic cell line (cell proliferation): U937 versus HCT116; for Ratio IC50 cell/enzyme (Aurora kinase): U937 cell IC50 / Aurora kinase A IC50
Description: as §1, §2, §3, §4

[1] = test system: U937 cell extract (esterase activity); test: Broken cell carboxylesterase assay, U937 cell extract; type: in vitro ADME; details: U937 versus HCT116 broken cell assay
Description: U937 or HCT 116 tumour cells (˜10^9) were washed in 4 volumes of Dulbeccos PBS (˜1 litre) and pelleted at 525 g for 10 min at 4° C. This was repeated twice and the final cell pellet was resuspended in 35 ml of cold homogenising buffer (Trizma 10 mM, NaCl 130 mM, CaCl2 0.5 mM pH 7.0 at 25° C.). Homogenates were prepared by nitrogen cavitation (700 psi for […] at 4° C.). The homogenate was kept on ice and supplemented with a cocktail of Inhibitors at final concentrations of: • Leupeptin 1 μM • Aprotinin 0.1 μM • E64 8 μM • Pepstatin 1.5 μM • Bestatin 162 μM • Chymostatin 33 μM
After clarification of the cell homogenate by centrifugation at 525 g for 10 min, the resulting supernatant was used as a source of esterase activity and was stored at −80° C. until required.
Hydrolysis of esters to the corresponding carboxylic acids can be measured using the cell extract, prepared as above. To this effect cell extract (˜30 μg/total assay volume of 0.5 ml) was incubated at 37° C. in a Tris-HCl 25 mM, 125 mM NaCl buffer, pH 7.5 at 25° C. At zero time the ester (substrate) was then added at a final concentration of 2.5 μM and the samples were incubated at 37° C. for the appropriate time (usually 0 or 80 min). […] After centrifugation at 12000 g for 5 min, samples were analysed for the ester and its corresponding carboxylic acid at room temperature by LCMS (Sciex API 3000, HP1100 binary pump, CTC PAL). […]

[2] = test system: TNFα production in human whole blood; test: LPS-stimulation of human whole blood, TNF-α ELISA; type: cell-based; details: for Ratio IC50 WB/enzyme (P38 MAP kinase): whole blood IC50 / P38 MAP kinase IC50; for Ratio IC50 WB/enzyme (PI 3-Kinase): whole blood IC50 / PI3-Kinase IC50
Description: Whole blood was taken by venous puncture using heparinised vacutainers (Becton Dickinson) and diluted in an equal volume of RPMI1640 tissue culture media. 100 μl was plated in V-bottomed 96 well tissue culture plates. Inhibitor was added in 100 μl of RPMI1640 media, and 2 h later the blood was stimulated with LPS (E coli strain 005:B5, Sigma) at a final concentration of 100 ng/ml and incubated at 37° C. in 5% CO2 for 6 h. TNF-α levels were measured from cell-free supernatants by sandwich ELISA (R&D Systems #QTA00B).

[3] = compound as shown (ester or unmodified modulator, or named acid), read-out: IC50 nM enzyme (DHFR)
[4] = enzyme IC50 for the acid resulting from cleavage of the ester shown, read-out: IC50 nM enzyme (acid), figures in brackets

- IC50 (recombinant human DHFR; [3]): 2700 nM
- IC50 (recombinant human DHFR; [4]): 11 nM
Structure (SMILES): Cc1c(CNc2ccc(OCCC(N)C(=O)OC3CCCC3)cc2)cnc2nc(N)nc(N)c12 (stereo not drawn)
- Ratio IC50 Cell/enzyme (HCT116), Table 2 (HCT 116 cells): 14

- IC50 (recombinant human DHFR; [3]): 1030 nM
- IC50 (recombinant human DHFR; [4]): 25 nM
Structure (SMILES): Cc1c(CNc2ccc(OCCC(NC3CCCCC3)C(=O)OC3CCCC3)cc2)cnc2nc(N)nc(N)c12 (stereo not drawn)
- Ratio IC50 Cell/enzyme (HCT116), Table 2 (HCT 116 cells): 66

- IC50 (recombinant human DHFR; [3]): 4000 nM
- IC50 (recombinant human DHFR; [4]): 10 nM
Structure (SMILES): Cc1c(CNc2ccc(CNC(CC(C)C)C(=O)OC3CCCC3)cc2)cnc2nc(N)nc(N)c12 (stereo not drawn)
- Ratio IC50 Cell/enzyme (HCT116), Table 2 (HCT 116 cells): 17

- IC50 (recombinant human DHFR; [3]): 1700 nM
- IC50 (recombinant human DHFR; [4]): 8 nM
Structure (SMILES): Cc1c(CNc2ccc(C(=O)NC(CC(C)C)C(=O)OC3CCCC3)cc2)cnc2nc(N)nc(N)c12 (stereo not drawn)

- IC50 (recombinant human DHFR; [3]): 10 nM
Structure (SMILES): COc1cc(NCc2cnc3nc(N)nc(N)c3c2C)cc(OC)c1OC [Compound (2 G=N), 5-Methyl-6-((3,4,5-trimethoxyphenylamino)methyl)pyrido[2,3-d]pyrimidine-2,4-diamine, reference compound]

Structure (SMILES): Cc1c(CNc2ccc(OCC[C@H](NC3CCCCC3)C(=O)OC3CCCC3)cc2)cnc2nc(N)nc(N)c12 [Compound (4), (S)-2-Cyclohexylamino-4-{4-[(2,4-diamino-5-methyl-pyrido[2,3-d]pyrimidin-6-ylmethyl)-amino]-phenoxy}-butyric acid cyclopentyl ester]
- selectivity between a monocytic and non-monocytic cell line (cell proliferation) (U937 cells): significantly more anti-proliferative in monocytic cell lines
- cleavage of the ester in monocytic versus non-monocytic cell lines [1]: selective cleavage in monocytic but not non-monocytic cell lines

Structure (SMILES): Cc1c(CNc2ccc(CN[C@@H](CC(C)C)C(=O)OC3CCCC3)cc2)cnc2nc(N)nc(N)c12 [Compound (5), (S)-2-{4-[(2,4-Diamino-5-methyl-pyrido[2,3-d]pyrimidin-6-ylmethyl)-amino]-benzylamino}-4-methyl-pentanoic acid cyclopentyl ester]
- selectivity between a monocytic and non-monocytic cell line (cell proliferation) (U937 cells): significantly more anti-proliferative in monocytic cell lines
- cleavage of the ester in monocytic versus non-monocytic cell lines [1]: selective cleavage in monocytic but not non-monocytic cell lines

- IC50 (recombinant human DHFR; [3]): 1700 nM
Structure (SMILES): Cc1c(CNc2ccc(C(=O)N[C@@H](CC(C)C)C(=O)OC3CCCC3)cc2)cnc2nc(N)nc(N)c12 [Compound (6), (S)-2-{4-[(2,4-Diamino-5-methyl-pyrido[2,3-d]pyrimidin-6-ylmethyl)-amino]-benzoylamino}-4-methyl-pentanoic acid cyclopentyl ester]
- fold more potent in U937 cells than the unmodified analogue (2 G=N) (U937 cells; U937 cells, versus (2 G=N)): 100 fold
- fold more potent in the HCT116 than the unmodified analogue (2 G=N) (HCT 116 cells; HCT116, versus (2 G=N)): 15 fold

Structure (SMILES): COc1cc2nccc(Oc3ccc(NC(=O)c4ccccc4)cc3)c2cc1OC [Compound (11), N-{4-(7-methoxy-6-methoxy-quinoline-4-yloxy)-phenyl}-benzamide, reference compound]
- Ratio IC50 cell/enzyme (Aurora kinase) (U937 cells): 1.3

Structure (SMILES): COc1cc2c(Oc3ccc(NC(=O)c4ccccc4)cc3)ccnc2cc1OCC[C@H](N)C(=O)OC1CCCC1 [Compound (12), (S)-2-amino-4-[4-(4-benzoylamino-phenoxy)-6-methoxy-quinolin-7-yloxy]-butyric acid cyclopentyl ester]
- Ratio IC50 cell/enzyme (Aurora kinase) (U937 cells): 0.0015

Structure (SMILES): COc1cc2c(Oc3ccc(NC(=O)c4ccccc4)cc3)ccnc2cc1OCC[C@H](N)C(=O)OC(C)(C)C [Compound (14), (S)-2-Amino-4-[4-(4-benzoylamino-phenoxy)-6-methoxy-quinolin-7-yloxy]-butyric acid tert-butyl ester]
- Ratio IC50 cell/enzyme (Aurora kinase) (U937 cells): 0.025

Structure (SMILES): Nc1c(C(=O)c2ccc(F)cc2F)ccc(=O)n1-c1c(F)cccc1F [Compound (15), 6-Amino-5-(2,4-difluoro-benzoyl)-1-(2,6-difluoro-phenyl)-1H-pyridin-2-one, reference compound]
- Ratio IC50 WB/enzyme (P38 MAP kinase) [2]: 6

Structure (SMILES): CC(C)(C)OC(=O)[C@@H](N)CCOc1cc(F)c(-n2c(N)c(C(=O)c3ccc(F)cc3F)ccc2=O)c(F)c1 [Compound (18), (S)-2-Amino-4-{4-[6-amino-5-(2,4-difluoro-benzoyl)-2-oxo-2H-pyridin-1-yl]-3,5-difluoro-phenoxy}-butyric acid tert-butyl ester]
- Ratio IC50 WB/enzyme (P38 MAP kinase) [2]: 18

- IC50 (recombinant human DHFR; [3]): 10 nM
Structure (SMILES): Cc1c(CNc2ccc(C(=O)N[C@@H](CC(C)C)C(=O)O)cc2)cnc2nc(N)nc(N)c12 [Compound (19), (S)-2-(4-((2,4-diamino-5-methylpyrido[2,3-d]pyrimidin-6-yl)methylamino)benzamido)-4-methylpentanoic acid]

Structure (SMILES): CC(=O)Nc1nc(C)c(-c2ccc(Cl)c(S(C)(=O)=O)c2)s1 [Compound (20), N-[5-(4-Chloro-3-methanesulfonyl-phenyl)-4-methyl-thiazol-2-yl]-acetamide, reference compound]
- Ratio IC50 WB/enzyme (PI 3-Kinase) [2]: 17

Structure (SMILES): Cc1nc(NC(=O)CC[C@H](N)C(=O)OC2CCCC2)sc1-c1ccc(Cl)c(S(C)(=O)=O)c1 [Compound (21), (S)-2-Amino-4-[5-(4-chloro-3-methanesulfonyl-phenyl)-4-methyl-thiazol-2-ylcarbamoyl]-butyric acid cyclopentyl ester]
- Ratio IC50 WB/enzyme (PI 3-Kinase) [2]: 0.15

Structure (SMILES): Cc1nc(NC(=O)CC[C@H](N)C(=O)OC(C)(C)C)sc1-c1ccc(Cl)c(S(C)(=O)=O)c1 [Compound (23), (S)-2-Amino-4-[5-(4-chloro-3-methanesulfonyl-phenyl)-4-methyl-thiazol-2-ylcarbamoyl]-butyric acid tert-butyl ester]
- Ratio IC50 WB/enzyme (PI 3-Kinase) [2]: 0.75

Structure (SMILES): COc1cc(NCc2cnc3nc(N)nc(N)c3c2C)cc(OC)c1OC [drawing 10]
- Ratio IC50 cell/enzyme (U937), Table 2 (U937 cells; U937 cell IC50 / DHFR enzyme IC50): 220
- Ratio IC50 Cell/enzyme (HCT116), Table 2 (HCT 116 cells): 170
